# Data as given in US7410995B1, “N-linked sulfonamide of heterocyclic thioesters for vision and memory disorders” (GPI Nil Holdings Inc., priority 1998, dated 2008).
# pKi: −log10 of the molar value. “Also recorded” adds a separate entry of the source.
# Tests used:
# [1] = Clearance (Table V comments); type: in vitro ADME
# [2] = tested on: retinal ganglion cell axons; assay: Protection of retinal ganglion cell axons from degeneration following optic nerve transection (Table V); type: in vivo; conditions: ± SEM
# Excerpt: Efficacy of representative compounds from different immunophilin ligand series in protecting retinal ganglion cell axons from degeneration following optic nerve transection is set forth in Table V.
# FKBP12 = FKBP12 (Homo sapiens, UniProt P62942); assay: Ki test procedure: inhibition of peptidyl-prolyl isomerase (rotamase) activity, chymotrypsin-coupled assay; type: biochemical; conditions: Table V comments; read-out: Ki rotomase
# Excerpt: The inhibition of the prolyl peptidyl cis-trans isomerase activity of FKBP may be measured as an indicator of this affinity. Inhibition of the peptidyl-prolyl isomerase (rotamase) activity of the compounds used in the inventive methods and pharmaceutical compositions can be evaluated by known methods described in the literature (Harding et al., Nature, 1989, 341:758-760; Holt et al. J. Am. Chem. Soc., 115:9923-9938). […] The inhibition of this reaction caused by the addition of different concentrations of inhibitor is determined, and the data is analyzed as a change in first-order rate constant as a function of inhibitor concentration to yield the apparent Ki values. […] The reaction is initiated by the addition of […] of substrate (succinyl-[…]-nitroanilide, 5 mg/mL in 2.35 mM LiCl in trifluoroethanol). The absorbance at 390 nm versus time is monitored for 90 seconds using a spectrophotometer and the rate constants are determined from the absorbance versus time data files.
# retina = assay: Streptozotocin induced diabetes: retinal neovascularization and neuron loss (FIG. 9); type: in vivo
# retinal ganglion cells [3] = assay: Retinal ganglion cell survival and axonal dying back following optic nerve transection (Example 17); type: in vivo, Sprague Dawley rats; conditions: GPI-1046 10 mg/kg/day s.c. for 28 days
# Excerpt: Transection of the mammalian optic nerve results in a brief period of abortive regeneration, but the majority of axotomized neurons die and the axons from many persisting ganglion cells die back beyond the optic nerve head.
# [4] = tested on: retinal ganglion cells and optic nerve axons; assay: In vivo retinal ganglion cell and optic nerve axon tests after optic nerve transection (Example 6, Table 1); parameters: species or system Sprague Dawley rats; conditions: for Proximal optic nerve myelin basic protein Density: SEM, % areal coverage of optic nerve cross section; for increased ON axon density: adjusted for optic nerve diameter; for Distal optic nerve stump shrinkage: cross sectional area compared to sham control; for Distal optic nerve myelin basic protein Density: cross sectional area multiplied by myelin density
# Excerpt: All eyes and optic nerves stumps were removed.
# retinal ganglion cells [5] = assay: Retinal ischemia: retinal ganglion cell, optic nerve axon and myelin degeneration (FIGS. 1, 2); type: in vivo, rats
# Excerpt: Retinal ganglion cells were retrogradely labeled in adult rats by bilateral injection of fluorogold in their lateral geniculate nuclei. Labeled ganglion cells in the normal rat retina appear as white profiles against the dark background (FIG. 1A). Complete retinal ischemia was produced by infusing normal saline solution into the retinal vitreous cavity of each eye until the intraocular pressure exceeded arterial blood pressure. 28 days after the ischemic episode extensive degeneration of retinal ganglion cell was evidenced by massive reduction in the density of fluorogold labeled cells (FIG. 1B). […] FIG. 2. […] Optic nerves from vehicle treated cases examined 28 days after a 1 hour retinal ischemic episode are characterized by a decreased density of optic nerve axons and the appearance of numerous degenerating myelin figures (bright white filled circles). […] FIG. 3. […] Few spared fluorogold pre labeled ganglion cells are present in vehicle treated cases (large white figures) among a population of small microglia that digest the debris of the degenerating cells and take up the fluorogold label (FIG. 3A). […] FIG. 4. […] 90 days after transection few ganglion cell axons remain within the optic nerve (FIG. 4B), representing only 5.6% of the normal population. The loss of axons reflects both the death of retinal ganglion cells and the regression or “dying back” of the axons of ˜70% of the small surviving ganglion cell population into the retina itself (Table 1). […] FIG. 5. […] FIG. 6. […] 90 days after transection extensive degeneration of myelin is evident in vehicle treated cases, characterized by the loss of fascicular organization and the appearance of numerous large dense degenerating myelin figures (FIG. 6B, upper right). […] FIG. 7. FKBP-12 immunohistochemistry labels oligodendroglia (large dark cells with fibrous processes), the cells which produce myelin, located between the fascicles of optic nerve fibers, and also some optic nerve axons. FIG. 8. […]
# [6] = Morris watermaze spatial learning and memory in aged rodents (Example 19); type: in vivo, C57BL/6N-Nia mice; conditions: aged impaired mice, daily 10 mg/kg GPI-1046, retention testing after 3 weeks of dosing; listed as GPT-1046, 10 mg/kg
# Excerpt: In all of these tasks, a proportion of aged rats or mice perform as well as the vast majority of young control animals, while other animals display severe impairments in memory function compared to young animals. […] Specifically, rodent spatial learning and memory decline during aging has been accepted by many investigators as an intriguing correlative animal model of human senile dementia. Cholinergic function in the hippocampus has been extensively studied as a component of spatial learning in rodents, and declining hippocampal cholinergic function has been noted in parallel with the development of learning and memory impairments. […] Also, reports on age-related deficits of hippocampal long-term potentiation (LTP)-induction, a reduction in theta rhythm frequency, a loss of experience-dependent plasticity of hippocampal place-units, and reductions in hippocampal protein kinase C are in keeping with the concept that no single underlying pathology can be identified as the cause of age-related behavioral impairment in rodents. However, the various experimental therapeutic approaches that have been undertaken to improve memory function in aged rodents have been somewhat slanted towards the cholinergic hypothesis. The Morris watermaze is widely used for assessing spatial memory formation and retention in experimental animals. […]
# [7] = Peripheral sensory neuropathy in streptozotocin-induced diabetic rat, hot plate and tail flick (Example 18); type: in vivo, Wistar rats; conditions: lesioned animals treated for 6 weeks at 10 mg/kg s.c.
# Description: The procedure involved using Male Wistar rats which were given a single injection of streptozotocin (65 mg/kg i.v.). Blood glucose levels were determined weekly for the first three weeks and on the last week of the experiment. Animals were evaluated weekly for signs of sensory neuropathy using the conventional hot plate and tail flick apparatus test procedures.
# FKBP12, sequence (P62942 whole entry, species assumed): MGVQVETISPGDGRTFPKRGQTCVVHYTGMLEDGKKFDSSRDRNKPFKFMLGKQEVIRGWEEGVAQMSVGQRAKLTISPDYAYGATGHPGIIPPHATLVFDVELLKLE
compound,measurement,setting,value
CCC(C)(C)C(=O)C(=O)N1CCCCC1C(=O)OC(CCc1ccccc1)CCc1ccccc1 (centres unmarked) [E],Clearance,[1],41.8 µL/min
CCC(C)(C)C(=O)C(=O)N1CCC[C@H]1C(=O)SCCC(c1ccccc1)c1ccccc1 [M],RT 97 RGC axon density 14 days after ON transection,[2],−6.3% ± 3.9% SEM
CCC(C)(C)C(=O)C(=O)N1CCCC[C@H]1C(N)=O [H],RT 97 RGC axon density 14 days after ON transection,[2],30.3% ± 8.0% SEM
CCC(C)(C)C(=O)C(=O)N1CCCC[C@H]1C(=O)SCCC(c1ccccc1)c1ccccc1 [Compound K],RT 97 RGC axon density 14 days after ON transection,[2],13.0% ± 4.2% SEM
O=C(SCCCc1ccccc1)[C@@H]1CCCN1C(=O)NC12CCC(CC1)C2 [B],pKi,FKBP12,6.83
same,RT 97 RGC axon density 14 days after ON transection,[2],100.0% ± 5.2% SEM
O=C(SCCCc1ccccc1)[C@@H]1CCCN1S(=O)(=O)Cc1ccccc1 [C],RT 97 RGC axon density 14 days after ON transection,[2],60.4% ± 3.1% SEM
CCC(C)(C)C(=O)C(=O)N1CCC[C@H]1C(=O)O [L],pKi,FKBP12,< 5.11
same,RT 97 RGC axon density 14 days after ON transection,[2],7.8% ± 3.0% SEM
CCC(C)(C)C(=O)C(=O)N1CCS[C@@H]1C(=O)OCCCc1cccnc1 [F],RT 97 RGC axon density 14 days after ON transection,[2],55.1% ± 5.9% SEM
O=C(OCCCc1cccnc1)[C@@H]1CCCN1C(=S)NC1CCCCC1 [I],RT 97 RGC axon density 14 days after ON transection,[2],23.8% ± 5.3% SEM
"3-(3-pyridyl)-1-propyl (2s)-1-(3,3-dimethyl-1,2-dioxopentyl)-2-pyrrolidinecarboxylate [GPI 1046]",pKi,FKBP12,8.12
same,Clearance,[1],3.5 µL/min
same,RT 97 RGC axon density 14 days after ON transection,[2],60.5% ± 3.9 SEM
"CCC(C)(C)C(=O)C(=O)N1CCC[C@H]1C(=O)OCCCc1cccnc1 [GPI 1046, 3-(3-pyridyl)-1-propyl (2s)-1-(3,3-dimethyl-1,2-dioxopentyl)-2-pyrrolidinecarboxylate]",loss of neurons in the INL and GCL,"retina; 28 day GPI 1046 treatment beginning 8 weeks after onset of diabetes, compared to streptozotocin/vehicle",protects neurons in the inner nuclear layer (INL) and ganglion cell layer (GCL) from degeneration
same,"neovascularization in the retina (PR, ONL, OPL, INL)",retina; 28 day GPI 1046 treatment beginning 8 weeks after onset of streptozotocin induced diabetes,reduced neovascularization; also recorded: decreases the extent of neovascularization
same,axons of protected neurons in the proximal stump (RT97),retinal ganglion cells [3]; 90 days after transection,preserved the axons of virtually all protected neurons
same,ganglion cell population spared,retinal ganglion cells [3]; sacrificed 90 days after transection,25%
same,quantitative recovery in myelin density,"[4]; GPI 1046 for the first 14 days after transection, proximal stump",1.60
same,"myelin levels, distal stump",[4]; GPI 1046 through the first 28 days after transection,~99 % of normal levels
same,Proximal optic nerve myelin basic protein Density,[4]; ONT/14 days GPI 1046,did not alter the pattern of myelin degeneration
same,increased ON axon density,[4]; ONT/14 days GPI 1046,1.5 X
same,Distal optic nerve stump shrinkage,[4]; ONT/14 days GPI 1046,did not protect against shrinkage of the distal stump
same,Distal optic nerve myelin basic protein Density,[4]; ONT/14 days GPI 1046,slightly increase the density of myelin
same,Proximal optic nerve myelin basic protein Density,[4]; ONT/28 days GPI 1046,prevents myelin degeneration in the proximal stump
same,increased ON axon density,[4]; ONT/28 days GPI 1046,5.0 X
same,Distal optic nerve stump shrinkage,[4]; ONT/28 days GPI 1046,prevented cross sectional shrinkage of the distal stump
same,Distal optic nerve myelin basic protein Density,[4]; ONT/28 days GPI 1046,prevents myelin degeneration in the distal stump
same,protection of retinal ganglion cells (fluorogold labeled) against degeneration,"retinal ganglion cells [5]; GPI 1046 10 mg/kg s.c. 1 hour prior to ischemia and 10 mg/kg/day for next four days, 28 days after ischemia",noticeable protection of a large proportion of the vulnerable ganglion cell population; also recorded: protects retinal ganglion cells against degeneration
same,density of degenerating myelin figures,"retinal ganglion cells [5]; same retinal ischemia cases, 28 days after 1 hour ischemic episode",dramatically decreased
same,degeneration of optic nerve axons,"retinal ganglion cells [5]; same retinal ischemia cases, 28 days after 1 hour ischemic episode, toluidine blue staining",protected the majority of optic nerve axons from degeneration; also recorded: prevents degeneration of optic nerve axons and myelin
same,"spatial memory performance (swim distance), retention testing",[6],no longer any statistically significant difference
same,"latency, hot plate and tail flick",[7],improvement in latency
CCC(C)(C)C(=O)C(=O)N1CCC[C@H]1C(=O)CCCCc1cccnc1 [J],RT 97 RGC axon density 14 days after ON transection,[2],15.8% ± 4.8% SEM
CCC(C)(C)C(=O)C(=O)N1CCCC[C@H]1C(=O)O [G],RT 97 RGC axon density 14 days after ON transection,[2],34.0% ± 4.8% SEM
